Data published in ChEMBL document CHEMBL1133669 (J Med Chem, 2000).

How the values were obtained:
Carbonic anhydrase 4 = target: T1, Carbonic anhydrase 4 (Bos taurus, UniProt Q95323)
T1 sequence (Q95323 whole entry): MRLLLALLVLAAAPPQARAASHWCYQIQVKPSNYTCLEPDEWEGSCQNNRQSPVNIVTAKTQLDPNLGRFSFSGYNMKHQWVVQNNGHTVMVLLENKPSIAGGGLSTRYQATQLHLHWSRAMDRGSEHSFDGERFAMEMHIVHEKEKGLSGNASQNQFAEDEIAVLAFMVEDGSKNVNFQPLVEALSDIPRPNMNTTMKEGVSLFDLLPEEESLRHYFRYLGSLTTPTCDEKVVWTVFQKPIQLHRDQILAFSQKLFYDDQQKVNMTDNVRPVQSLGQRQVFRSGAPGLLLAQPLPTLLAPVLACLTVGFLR
Description: Inhibitory activity against bovine carbonic anhydrase IV (CA4), isolated from bovine lung microsomes

Carbonic anhydrase 1 = Carbonic anhydrase 1 (Homo sapiens, UniProt P00915)
Sequence of Carbonic anhydrase 1 (P00915 whole entry): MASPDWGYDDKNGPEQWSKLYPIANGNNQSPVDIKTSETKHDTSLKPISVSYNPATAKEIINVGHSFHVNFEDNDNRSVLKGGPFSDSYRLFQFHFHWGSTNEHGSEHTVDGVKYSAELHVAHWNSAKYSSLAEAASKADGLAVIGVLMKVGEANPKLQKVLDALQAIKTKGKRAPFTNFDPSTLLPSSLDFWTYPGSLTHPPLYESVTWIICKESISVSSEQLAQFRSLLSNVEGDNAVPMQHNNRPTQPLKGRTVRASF
Description: Inhibitory activity against human carbonic anhydrase I (CA1)

Structure (SMILES)	Ki (Carbonic anhydrase 4)	Ki (Carbonic anhydrase 1)
CCc1cc(-c2ccccc2)cc(CC)[n+]1CC(=O)Oc1ccc2nc(S(N)(=O)=O)sc2c1	27 nM	11 nM
CC(C)c1cc(-c2ccccc2)cc(C(C)C)[n+]1CC(=O)NCCC(=O)Nc1nnc(S(N)(=O)=O)s1	16 nM	–
CCc1cc(-c2ccccc2)cc(CC)[n+]1CC(=O)Nc1ccc(S(N)(=O)=O)cc1F	39 nM	750 nM
CC(C)c1cc(-c2ccccc2)cc(C(C)C)[n+]1CC(=O)Nc1ccccc1S(N)(=O)=O	350 nM	30500 nM
Cc1cc(C)[n+](CC(=O)Nc2ccc(S(=O)(=O)Nc3nnc(S(N)(=O)=O)s3)cc2)c(C)c1	12 nM	15 nM
Cc1cc(C)[n+](CC(=O)Nc2ccc(S(=O)(=O)/N=c3/sc(S(N)(=O)=O)nn3C)cc2)c(C)c1	–	15 nM
CC(C)c1cc(-c2ccccc2)cc(C(C)C)[n+]1CC(=O)Nc1ccc(S(N)(=O)=O)cc1F	39 nM	750 nM
CCc1cc(-c2ccccc2)cc(CC)[n+]1CC(=O)NCCc1ccc(S(N)(=O)=O)cc1	61 nM	750 nM
CC(C)c1cc(-c2ccccc2)cc(C(C)C)[n+]1CC(=O)Nc1nnc(S(N)(=O)=O)s1	36 nM	–
Cc1cc(C)[n+](CC(=O)Nc2ccc(S(N)(=O)=O)cc2Cl)c(C)c1	70 nM	680 nM
CC(C)c1cc(-c2ccccc2)cc(C(C)C)[n+]1CC(=O)Nc1ccc(S(N)(=O)=O)cc1I	75 nM	630 nM
CCc1cc(-c2ccccc2)cc(CC)[n+]1CC(=O)NCCC(=O)Nc1nnc(S(N)(=O)=O)s1	19 nM	–
Cc1cc(-c2ccccc2)cc(C)[n+]1CC(=O)NCc1ccc(S(N)(=O)=O)cc1	50 nM	1250 nM
Cc1cc(-c2ccccc2)cc(C)[n+]1CC(=O)Oc1ccc2nc(S(N)(=O)=O)sc2c1	17 nM	11 nM
CCc1cc(-c2ccccc2)cc(CC)[n+]1CC(=O)OCCOc1ccc2nc(S(N)(=O)=O)sc2c1	25 nM	10 nM
CCc1cc(-c2ccccc2)cc(CC)[n+]1CC(=O)OCCc1ccc(S(N)(=O)=O)cc1	84 nM	1500 nM

Structure (SMILES)	Ki (Carbonic anhydrase 4)	Ki (Carbonic anhydrase 1)
Cn1nc(S(N)(=O)=O)s/c1=N/S(=O)(=O)c1ccc(N)cc1	0.8 nM	1 nM
Cc1cc(C)[n+](CC(=O)Nc2ccc(S(=O)(=O)Nc3ccc(S(N)(=O)=O)cc3)cc2)c(C)c1	78 nM	55 nM
Cc1cc(C)[n+](CC(=O)Nc2nnc(S(N)(=O)=O)s2)c(C)c1	50 nM	300 nM
CC(C)c1cc(-c2ccccc2)cc(C(C)C)[n+]1CC(=O)OCCc1ccc(S(N)(=O)=O)cc1	115 nM	1650 nM
Cc1cc(-c2ccccc2)cc(C)[n+]1CC(=O)Nc1ccc(S(=O)(=O)Nc2nnc(S(N)(=O)=O)s2)cc1	9 nM	10 nM
CCc1cc(-c2ccccc2)cc(CC)[n+]1CC(=O)NCc1ccc(S(N)(=O)=O)cc1	67 nM	1400 nM
Cc1cc(C)[n+](CC(=O)/N=c2/sc(S(N)(=O)=O)nn2C)c(C)c1	60 nM	330 nM
CCc1cc(-c2ccccc2)cc(CC)[n+]1CC(=O)Nc1cccc(S(N)(=O)=O)c1	310 nM	21800 nM
Cc1cc(C)[n+](CC(=O)Nc2c(S(N)(=O)=O)cc(S(N)(=O)=O)c(Cl)c2Cl)c(C)c1	67 nM	550 nM
Cc1cc(C)[n+](CC(=O)Nc2nccc(Nc3ccc(S(N)(=O)=O)cc3)n2)c(C)c1	69 nM	52 nM
CC(C)c1cc(-c2ccccc2)cc(C(C)C)[n+]1CC(=O)Nc1ccc2nc(S(N)(=O)=O)sc2c1	38 nM	13 nM
Cc1cc(C)[n+](CC(=O)OCCc2ccc(S(N)(=O)=O)cc2)c(C)c1	130 nM	1700 nM
CCc1cc(-c2ccccc2)cc(CC)[n+]1CC(=O)Nc1ccc(S(N)(=O)=O)cc1Cl	46 nM	610 nM
Cc1cc(-c2ccccc2)cc(C)[n+]1CC(=O)NCCC(=O)Nc1nnc(S(N)(=O)=O)s1	15 nM	–
Nc1cc(C(F)(F)F)c(S(N)(=O)=O)cc1S(N)(=O)=O [2,4-DISULFAMYLTRIFLUOROMETHYLANILINE]	140 nM	–
